Source: the supplement of paper PMC10307832

Key:
Experiment in all cases: relative viability (nuclei count vs DMSO), 5 days (fraction); higher = more cells survive
[1] = compound: CN[C@@H]1C[C@H]2O[C@@](C)([C@@H]1OC)n1c3ccccc3c3c4c(c5c6ccccc6n2c5c31)C(=O)NC4 [Staurosporine] + CC(=O)c1c(C)c2cnc(Nc3ccc(N4CCNCC4)cn3)nc2n(C2CCCC2)c1=O [Palbociclib] (partner 0.5 µM)
How it was run: (§1)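 For relative viability, nuclei counts in treated wells were divided by those in vehicle wells. Lung cancer cell lines had been pin-tool dosed in 1536-well plates the day after seeding and cultured for 5 days, then fixed and stained in one step (final 0.05% Triton X-100, 1% formaldehyde, 1 ug/ml Hoechst) and imaged at 4×. Doses were one drug alone or a fixed anchor-drug dose plus five library-drug doses (not always all listed) in √10 steps, and values are duplicate-plate medians.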

[2] = compound: O=c1[nH]cc(F)c(=O)[nH]1 [5-Fluorouracil] + CC(=O)c1c(C)c2cnc(Nc3ccc(N4CCNCC4)cn3)nc2n(C2CCCC2)c1=O [Palbociclib] (partner 0.5 µM)
How it was run: as §1

Sulindac + Navitoclax = compound: CC1=C(CC(=O)O)c2cc(F)ccc2/C1=C\c1ccc([S+](C)[O-])cc1 [Sulindac] + CC1(C)CCC(c2ccc(Cl)cc2)=C(CN2CCN(c3ccc(C(=O)NS(=O)(=O)c4ccc(N[C@H](CCN5CCOCC5)CSc5ccccc5)c(S(=O)(=O)C(F)(F)F)c4)cc3)CC2)C1 [Navitoclax] (partner 0.5 µM)
How it was run: as §1

Sulindac + AZD7762 = compound: CC1=C(CC(=O)O)c2cc(F)ccc2/C1=C\c1ccc([S+](C)[O-])cc1 [Sulindac] + NC(=O)Nc1cc(-c2cccc(F)c2)sc1C(=O)N[C@H]1CCCNC1 [AZD7762] (partner 0.2 µM)
How it was run: as §1

Cell Line	relative viability ([1]; first compound 0.005 µM)	relative viability ([1]; first compound 0.01581 µM)	relative viability ([1]; first compound 0.05 µM)	relative viability ([1]; first compound 0.1581 µM)	relative viability ([1]; first compound 0.5 µM)	relative viability ([2]; first compound 0.2 µM)	relative viability ([2]; first compound 2 µM)	relative viability (Sulindac + Navitoclax; first compound 0.08 µM)	relative viability (Sulindac + Navitoclax; first compound 0.253 µM)	relative viability (Sulindac + Navitoclax; first compound 0.8 µM)	relative viability (Sulindac + Navitoclax; first compound 2.53 µM)	relative viability (Sulindac + Navitoclax; first compound 8 µM)	relative viability (Sulindac + AZD7762; first compound 0.08 µM)	relative viability (Sulindac + AZD7762; first compound 0.253 µM)	relative viability (Sulindac + AZD7762; first compound 0.8 µM)	relative viability (Sulindac + AZD7762; first compound 2.53 µM)	relative viability (Sulindac + AZD7762; first compound 8 µM)	relative viability ([2]; first compound 0.02 µM)	relative viability ([2]; first compound 0.6325 µM)
EKVX	0.266	0.143	0.152	0.168	0.0893	0.276	0.175	0.976	0.969	0.889	1.04	1.07	0.755	0.902	0.571	0.763	0.809		
NCI-H647	0.239		0.0896	0.0475	0.0477	0.516	0.358	1.48	1.26	0.991	1.04	1.53	0.592	0.5	0.362	0.575	0.488	0.343	0.308
NCI-H1734	0.332	0.204	0.202	0.16	0.147	0.346	0.264	0.785	1.03	0.594	0.987	1.12	0.646	0.587	0.519	0.621	0.73	0.349	0.271
LCLC-97TM1	0.238	0.127	0.133	0.141	0.17	0.228	0.157	0.566	0.397	0.386		0.351	0.274	0.377	0.171		0.232	0.221	0.215
NCI-H2170	0.43		0.314	0.218	0.176	0.368	0.249	0.564	0.638	0.495	0.71	0.6	1.06	0.91	0.765	1.01	0.884	0.407	0.268
NCI-H1793	0.446		0.314	0.191	0.166	0.299	0.243	0.341	0.396	0.364	0.458	0.473	0.41	0.537		0.441	0.33	0.285	0.274
RERF-LC-KJ	0.914	0.916	0.475	0.4	0.26	0.991	0.677	1.23	0.983	0.797	0.749	1.11	1.41	1.18	0.632	0.993	1.05	1.06	0.891
EPLC-272H	0.3	0.275	0.193	0.157	0.0846	0.36	0.343	1.16		0.828	1.23	1.27	0.432		0.53	0.155	0.263	0.319	0.3
A-427	0.509	0.425	0.346	0.246	0.193	0.518	0.364	1.07	0.94	0.985	0.926	1.04	0.742	0.692	1.01	0.727	0.808	0.529	0.49
